Test results published in publication PMC8264259, “A Novel Ruthenium(II) Complex With Lapachol Induces G2/M Phase Arrest Through Aurora-B Kinase Down-Regulation and ROS-Mediated Apoptosis in Human Prostate Adenocarcinoma Cells” (Frontiers in Oncology, 2021).
Where a name gives a salt, the structure may show the parent alone.

Key:
[1] = tested on: A-375 (human malignant melanoma); experiment: Alamar blue cytotoxicity assay, A-375; assay type: cell-based; conditions: for IC50: A-375, Alamar blue, 24-h incubation, mean ± S.E.M.
From the text: (§1) Human lung carcinoma (A549, ATCC® CCL-185™), human hepatocellular carcinoma (HepG2, ATCC® HB-8065™), and human breast adenocarcinoma (MDA-MB-231, ATCC® HTB-26™) were obtained from American Type Cell Collection (ATCC). Human melanoma (A-375, BCRJ-0278), Human colorectal adenocarcinoma (Caco-2, BCRJ 0059), human prostate adenocarcinoma (DU-145, BCRJ-0078, and PC-3, BCRJ-0269), human mouth fibroblast (FGH, BCRJ-0089), and human prostate epithelial cells (PNT-2, BCRJ-0366) were obtained from Rio de Janeiro Cells Bank (BCRJ). The cells A549, A-375, Caco-2, DU-145, HepG2, MDA-MB-231, and FGH were cultured in Dulbecco’s Modified Eagle’s Medium (DMEM, Gibco-Invitrogen®), PC-3 and PNT-2 cells were grown in Roswell Park Memorial Institute Medium (RPMI-1640, Gibco-Invitrogen®). Both mediums were supplemented according to the needs of each lineage, as recommended by its cell banks with 2 mM L-glutamine (Gibco-Invitrogen®), 10% or 20% fetal bovine serum (Gibco-Invitrogen®), 1% antibiotic-antimycotic solution (5 mg/ml penicillin, 5 mg/ml streptomycin, and 10 mg/ml neomycin, Gibco-Invitrogen®), and 3.7 g/L of NaHCO3 (Sigma-Aldrich). All cell lines were cultured in flasks at 37°C in 5% CO2 and 96% of relative humidity according to the procedures proposed by ([31]), and a mycoplasma stain kit (Sigma-Aldrich) was used to confirm the use of cells devoid of contamination. The assays were conducted between the third and the seventh-cell passage with sub-cultures every 3 to 4 days to maintain exponential growth. The cell viability was checked using the trypan blue dye exclusion assay for all experiments where over 95% of the cells were viable at the beginning of the tests.
(§2) The in vitro antiproliferative activity was quantified using the Alamar blue® assay, according to the method reported by ([32]). Cells were seeded in 96-well plates for all experiments (1.5 × 10^4 cells/well). After 24 h, the complexes were dissolved in DMSO and added to each well and incubated for 24 h. Dilutions of the complexes were prepared to obtain concentrations ranging from 0.3 to 100 μM. […] DMSO (0.1% v/v) was used as the vehicle control. Following 24 h of incubation, 50 μl of Alamar blue® (resazurin at 0.01% w/v, Sigma-Aldrich) was added to each well, and the plates were incubated, at 37°C, in the dark. Fluorescence reading was performed in a Synergy H1 Fluorescence Spectrophotometer (BioTek®), using excitation and emission filters at wavelengths of 560 and 590 nm, respectively. The fluorescence intensity was measured in arbitrary fluorescence units (AFU) and the AFU of untreated cells (CTL) was considered 100%. The cytotoxic effects of the compounds were estimated in terms of cell proliferation inhibition (%) and expressed as half-maximal inhibitory concentration (IC50). The cell proliferation inhibition percentage of cells exposed to treatments was calculated following: % Inhibition = 100 − (AFU of treated well/AFU of control well) × 100). The IC50 values were calculated from the cell proliferation inhibition percentage by nonlinear regression method using CompusSyn® Software.

[2] = tested on: A549 (human lung carcinoma); experiment: Alamar blue cytotoxicity assay, A549; assay type: cell-based; conditions: for IC50: A549, Alamar blue, 24-h incubation, mean ± S.E.M.
From the text: as §1, §2

[3] = tested on: DU-145 (human prostate adenocarcinoma); experiment: Alamar blue cytotoxicity assay, DU-145; assay type: cell-based; conditions: for IC50: DU-145, Alamar blue, 24-h incubation, mean ± S.E.M.
From the text: as §1, §2

[4] = tested on: HepG2 (human hepatocellular carcinoma); experiment: Alamar blue cytotoxicity assay, HepG2; assay type: cell-based; conditions: for IC50: HepG2, Alamar blue, 24-h incubation, mean ± S.E.M.
From the text: as §1, §2

[5] = tested on: MDA-MB-231 (human breast adenocarcinoma); experiment: Alamar blue cytotoxicity assay, MDA-MB-231; assay type: cell-based; conditions: for IC50: MDA-MB-231, Alamar blue, 24-h incubation, mean ± S.E.M.
From the text: as §1, §2

[6] = tested on: PC-3 (human prostate adenocarcinoma); experiment: Alamar blue cytotoxicity assay, PC-3; assay type: cell-based; conditions: for IC50: PC-3, Alamar blue, 24-h incubation, mean ± S.E.M.
From the text: as §1, §2

[7] = tested on: FGH (human mouth fibroblast); experiment: Alamar blue cytotoxicity assay, FGH non-cancer cells; assay type: cell-based; conditions: 24-h incubation, mean ± S.E.M.
From the text: as §1, §2

[8] = tested on: PNT-2 (human prostate epithelial cells); experiment: Alamar blue cytotoxicity assay, PNT-2 non-cancer cells; assay type: cell-based; conditions: mean ± S.E.M.
From the text: as §1, §2

DU-145 MCTSs = experiment: 3D multicellular tumor spheroids (MCTSs) culture; assay type: cell-based, human; conditions: 3D spheroids, 24 h, Alamar blue; read-out: IC50 against the DU-145 MCTSs
Protocol: Multicellular tumor spheroids (MCTSs) were obtained according to the method reported by ([33]). Briefly, 200 μl of a solution of DU-145 cells (2.0 × 10^3 cells/well) were inserted in agarose-coated 96-well plates (1.5% w/v) and cultured in complete medium plus 3% Matrigel® (Corning). DU-145-MCTSs with stable structures had formed after five days. […] Negative control received the vehicle (DMSO 0.1% v/v) that was used for diluting the compounds tested. Finally, the MCTS proliferation inhibition (%) and IC50 were determined by Alamar blue® assay as described above. To investigate morphological changes other MCTSs were treated with 0.25, 0.5, 1.0, 1.5, and 2.0 μM of complex (2) and examined for 7 days. Spheroid integrity and diameter of MCTSs were analyzed by phase-contrast microscopy (Inverted Trinocular Microscope Opton TNB-O5T-PL) using AxioVision LE software (Carl Zeiss, Germany).

DU-145 cells [9] = experiment: Clonogenic assay; assay type: cell-based, human; conditions: 24 h treatment, colonies after 7 days
Protocol: The clonogenic assay was performed in accordance with the guidelines of ([34]). […] DMSO (0.1% v/v) was used as the vehicle control. After 24 h, the cells were washed with PBS (Gibco-Invitrogen®) and harvested by trypsinization. Cells were counted using a Neubauer chamber and replated then on cell culture dishes of 21.5 cm^2 in a density of 200 cells per culture dish for each treatment in triplicate. After 7 days, cells were fixed in ice-cold methanol: acetic acid: distilled water (1:1:8), air-dried, and stained with crystal violet (0.5% w/v, Sigma-Aldrich) for 20 min. Colonies with at least 50 cells were counted. Plating efficiency (PE) of DU-145 cells was calculated by the ratio of the number of colonies observed after 7 days of incubation to the number of cells seeded (two hundred). The average of colonies in control was considered as 100%, and the number of colonies that arise after treatment of cells is called the surviving fraction (SF), obtained by:
SF = Numberofcoloniescountedineachtreatment/Numberofcoloniescountedincontrol x PE × 100

DU-145 cells [10] = experiment: Annexin-V/PI staining assay (flow cytometry); assay type: cell-based, human; conditions: DU-145, 25 μM (~IC50), 24 h
Protocol: The measurement of cell death was performed by the guidelines of ([35]). Detection of apoptotic/necrotic cells was determined by flow cytometry using the Alexa Fluor® 488 Annexin V/PI (Thermo Fischer Scientific), and the analyses were performed according to the manufacturer’s instructions. […] DMSO (0.1% v/v) was used as the vehicle control. Following 24 h of incubation, the cells were collected with Accutase® (Gibco-Invitrogen®), washed with PBS and resuspended in 200 μl of cold annexin-binding buffer. Next, 10 μl of Alexa Fluor® was added to Annexin V (50 μl/ml) staining buffer, and the mixture was incubated in the dark at 4°C for 15 min. Previously, the analyses, 100 μl of PI (2 μg/ml) was added, and then, the fluorescence was measured by flow cytometry in a FACSCanto flow cytometer (BD Biosciences, USA) using the Diva software. Ten thousand events were evaluated per experiment, and cellular debris was omitted from the analysis.

[11] = tested on: Caco-2 (human colorectal adenocarcinoma); experiment: Alamar blue cytotoxicity assay, Caco-2; assay type: cell-based; conditions: for IC50: Homo sapiens, Caco-2, Alamar blue, 24-h incubation, mean ± S.E.M.
From the text: as §1, §2

[12] = set-up: method as in PMID 30776556; conditions: previously tested, not tested in the present work; read-out: IC50 (weak cytotoxicity); cited from earlier work
[13] = Homo sapiens, PNT2, 24-h incubation

Compound: N.N.[Cl][Pt][Cl] [CIS, Cisplatin, reference compound]
- IC50 [1]: 16.5 ± 2.3 µM
- IC50 [2]: 11.9 ± 0.6 µM
- IC50 [3]: 24.3 ± 1.3 µM
- IC50 [4]: 14.1 ± 0.5 µM
- IC50 [5]: 22.1 ± 1.7 µM
- IC50 [6]: 10.8 ± 1.1 µM
- IC50 [7]: 11.4 ± 0.5 µM
- IC50 ([8]; 24-h incubation): 9.5 ± 0.3 µM
- IC50 (DU-145 MCTSs): 62.6 µM
- survival fraction (SF) (DU-145 cells [9]; DU-145, 25 μM): 69.1%
- population of apoptotic cells (DU-145 cells [10]): 19.5%

Compound: COc1cccc2c1C(=O)c1c(O)c3c(c(O)c1C2=O)C[C@@](O)(C(=O)CO)C[C@@H]3O[C@H]1C[C@H](N)[C@H](O)[C@H](C)O1 [DXR, doxorubicin hydrochloride, reference compound]
- IC50 ([1]; Homo sapiens): 3.7 ± 0.6 µM
- Selectivity index (SI) ([1]; SI = IC50[FGH]/IC50[A-375]): 0.7
- Selectivity index (SI) ([1]; SI = IC50[PNT-2]/IC50[A-375]): 0.9
- IC50 ([2]; Homo sapiens): 1.9 ± 0.4 µM
- Selectivity index (SI) ([2]; SI = IC50[FGH]/IC50[A549]): 1.4
- Selectivity index (SI) ([2]; SI = IC50[PNT-2]/IC50[A549]): 1.7
- IC50 [11]: 2.1 ± 0.8 µM
- Selectivity index (SI) ([11]; SI = IC50[FGH]/IC50[Caco-2]): 1.2
- Selectivity index (SI) ([11]; SI = IC50[PNT-2]/IC50[Caco-2]): 1.5
- IC50 ([3]; Homo sapiens): 2.3 ± 0.5 µM
- Selectivity index (SI) ([3]; SI = IC50[FGH]/IC50[DU-145]): 1.1
- Selectivity index (SI) ([3]; SI = IC50[PNT-2]/IC50[DU-145]): 1.4
- IC50 ([4]; Homo sapiens): 2.4 ± 0.8 µM
- Selectivity index (SI) ([4]; SI = IC50[FGH]/IC50[HepG2]): 1.1
- Selectivity index (SI) ([4]; SI = IC50[PNT-2]/IC50[HepG2]): 1.3
- IC50 ([5]; Homo sapiens): 2.1 ± 0.7 µM
- Selectivity index (SI) ([5]; SI = IC50[FGH]/IC50[MDA-MB-231]): 1.2
- Selectivity index (SI) ([5]; SI = IC50[PNT-2]/IC50[MDA-MB-231]): 1.5
- IC50 ([6]; Homo sapiens): 2.6 ± 0.3 µM
- Selectivity index (SI) ([6]; SI = IC50[FGH]/IC50[PC-3]): 1.0
- Selectivity index (SI) ([6]; SI = IC50[PNT-2]/IC50[PC-3]): 1.2
- IC50 ([7]; Homo sapiens, Fibroblast): 2.6 ± 0.6 µM
- IC50 [8, 13]: 3.2 ± 0.5 µM
- survival fraction (SF) (DU-145 cells [9]; DU-145, 2.5 μM): 18.7%

Compound: [Cl][Ru][Cl].c1ccc(-c2ccccn2)nc1.c1ccc(P(CP(c2ccccc2)c2ccccc2)c2ccccc2)cc1 [cis-[RuCl2(dppm)(bipy)]]
- IC50 [12]: > 100 µM

Compound: CC(C)=CCC1=C(O)C(=O)c2ccccc2C1=O [Lp, 2-hydroxy-3-(3-methylbut-2-en-1-yl)naphthalene-1,4-dione, reference compound]
- IC50 ([1]; Homo sapiens): > 100 µM
- IC50 ([2]; Homo sapiens): > 100 µM
- IC50 [11]: > 100 µM
- IC50 ([3]; Homo sapiens): > 100 µM
- IC50 ([4]; Homo sapiens): > 100 µM
- IC50 ([5]; Homo sapiens): > 100 µM
- IC50 ([6]; Homo sapiens): > 100 µM
- IC50 ([7]; Homo sapiens, Fibroblast): > 100 µM
- IC50 [8, 13]: > 100 µM

Compound: [Cl][Ru][Cl].c1ccc(P(CP(c2ccccc2)c2ccccc2)c2ccccc2)cc1.c1cnc2c(c1)ccc1cccnc12 [cis-[RuCl2(dppm)(phen)]]
- IC50 [12]: > 100 µM
